Assays:
CcmR = target: T1, CcmR (Synechocystis sp. PCC 6803, UniProt P73862); experiment: SPR difference curves, CcmR binding to immobilised operator DNA; settings: 1.5 µM CcmR; ligand 10, 100, 500 µM; pndhF3 DNA; 10 mM Pipes pH 7.4, 300 mM NaCl; effector (co-repressor)
T1 construct: gene rbcR; recombinant N-terminally His-tagged, heterologously expressed
T1 sequence (P73862 1-316): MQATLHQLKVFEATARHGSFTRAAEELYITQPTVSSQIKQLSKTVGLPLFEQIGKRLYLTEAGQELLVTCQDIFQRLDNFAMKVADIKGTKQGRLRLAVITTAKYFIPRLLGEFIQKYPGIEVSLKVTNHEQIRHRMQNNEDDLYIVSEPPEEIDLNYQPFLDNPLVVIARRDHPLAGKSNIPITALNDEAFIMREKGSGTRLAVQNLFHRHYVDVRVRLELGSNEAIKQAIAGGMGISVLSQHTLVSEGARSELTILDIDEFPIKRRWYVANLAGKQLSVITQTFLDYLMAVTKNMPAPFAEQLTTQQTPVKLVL

CmpR = target: T2, CmpR (Synechocystis sp. PCC 6803, UniProt Q55459); experiment: SPR difference curves, CmpR binding to immobilised operator DNA; settings: 1.5 µM CmpR; ligand 10, 100, 500 µM; cmpA promoter DNA; effector (co-activator)
T2 construct: heterologously expressed in E. coli by essentially the same approach as His-tagged CcmR
T2 sequence (Q55459 1-304): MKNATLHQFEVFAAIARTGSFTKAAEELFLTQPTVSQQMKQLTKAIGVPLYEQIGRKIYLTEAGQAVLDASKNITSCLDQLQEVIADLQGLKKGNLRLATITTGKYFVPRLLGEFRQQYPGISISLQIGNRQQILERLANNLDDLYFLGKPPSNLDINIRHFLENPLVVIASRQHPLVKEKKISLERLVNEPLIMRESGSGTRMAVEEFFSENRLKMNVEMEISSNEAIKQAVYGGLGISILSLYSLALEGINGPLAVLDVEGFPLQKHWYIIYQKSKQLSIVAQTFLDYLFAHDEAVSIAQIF

[1] = tested on: T3, CcmR (Synechocystis sp. PCC 6803), ORF:206cd751; experiment: SPR; settings: SPR: 10 mM Pipes pH 7.4, 300 mM NaCl, 0.02% Tween-20, 25 uL/min, temperature not stated; EMSA: room temperature 20 min, 6% native PAGE (50 mM Tris pH 8.5 …)
T3 sequence: T1 sequence (P73862 1-316)

Molecule	SPR difference curves, CcmR binding to immobilised operator DNA (CcmR)	SPR difference curves, CmpR binding to immobilised operator DNA (CmpR)	binding [1]
NC(=O)c1ccc[n+]([C@@H]2O[C@H](COP(=O)(O)OP(=O)(O)OC[C@H]3O[C@@H](n4cnc5c(N)ncnc54)[C@H](OP(=O)(O)O)[C@@H]3O)[C@@H](O)[C@H]2O)c1 [NADP^+]	CcmR only showed modified binding only in the presence of NADP^+ and α-KG	–	–
O=C(O)COP(=O)(O)O [2-phosphoglycolate]	–	the presence of 2-PG and RuBP increased binding	–
O=C(COP(=O)(O)O)[C@H](O)[C@H](O)COP(=O)(O)O [ribulose-1,5-bisphosphate]	–	the presence of 2-PG and RuBP increased binding	–
GCTCCCCGGACTAAGCTTGTCAAAATCATTGGCTTTATTCTATCATTGGTTATCTAACAACAATCCCAGGTCTATGAAAGTGAGTGTAATAGCCATAGGTCTATTTTAGTTATTGACTTCAGCACATCCTAGACCCAAG (double strand) [pccmR (SPR)]	–	–	binds
AGTCAAGCGACAATGGTATAACCTAGATGCATAGAAAGAGTGTTATTTGTTACACCATATCATAGGGGAAATAAAATTCCAGATCAACAACCATTTGCTTAAGTGAATGATAAGTCTGGGTAATTGGAGGAAGAGGCAGGCTA (double strand) [pndhF3-2]	–	–	binds
O=C(O)CCC(=O)C(=O)O [α-KG]	CcmR only showed modified binding only in the presence of NADP^+ and α-KG	–	–

— PMC3401165, “Regulation of the Cyanobacterial CO2-Concentrating Mechanism Involves Internal Sensing of NADP^+ and α-Ketogutarate Levels by Transcription Factor CcmR” (PLoS ONE, 2012)
